In PMC11369887 (RSC Advances, 2024):
Like-named read-outs stand apart in the source and are kept apart here.

Legend:
in vitro [1] = conditions: human, MCF-10a normal breast cells
Procedure: (§2) The following normal cell lines were selected: normal breast MCF-10a, normal liver THLE2 and normal lymphocyte PCS-800-011. […] Moreover, the toxic effect of representative target compounds was evaluated on normal breast (MCF10a), normal liver (THLE2) and normal lymphocyte (PCS-800-011) cell lines using an MTT assay. […] The cells were cultured using Dulbecco's modified Eagle's medium (DMEM) (Invitrogen/Life Technologies) supplemented with 10% fetal bovine serum (FBS) (Hyclone), 10 μg mL^−1 of insulin (Sigma), and 1% penicillin–streptomycin. All chemicals and reagents were purchased from Sigma-Aldrich or Invitrogen. For 24 hours before to the MTT experiment, plate cells (densities of 1.2–1.8 × 10 000 cells per well) were layered in a 96-well plate containing 100 μL of the tested chemical per well and 100 μL of full growth media.
(§3) The culture medium was transferred to a centrifuge tube. […] Then 2.0 to 3.0 mL of Trypsin EDTA solution was added to the flask, and the cells were observed using an inverted microscope until the cell layer became dispersed (usually within 5–15 min). After that, 6.0 to 8.0 mL of complete growth medium was added and the cells were aspirated by gently pipetting. The cell suspension was transferred to the centrifuge tube with the medium and cells from step 1 and centrifuged at approximately 125 g for 5–10 min. The supernatant was discarded. The cell pellet was re-suspended in a fresh growth medium. Appropriate aliquots of the cell suspension were added to new culture vessels.
For the best results, the cells in the log phase of growth should be employed and the final cell number should not exceed 10^6 cells per cm^2. […] The absorbance was spectrophotometrically measured at a wavelength of 570 nm. The background absorbance of multiwell plates was measured at 690 nm and subtracted from the 450 nm measurement. Tests performed in multiwell plates might be read using an appropriate type of plate reader or the contents of individual wells might be transferred to appropriate size cuvettes for spectrophotometric measurement.

[2] = test system: human breast cancer (MCF-7) cell line; assay: MTT cytotoxicity assay, MCF-7; conditions: Homo sapiens, MCF7, 48 h, read-out: Cytotoxicity IC50 MCF-7
Procedure: (§4) The newly synthesized compounds were evaluated for their in vitro growth inhibition of three human tumor cell lines representing different tumor types, namely, breast adenocarcinoma (MCF-7), liver hepatocellular carcinoma (Hep3B) and leukemia-SR. […] The breast tumor cell line (MCF-7), hepatic tumor cell line (Hep3B) and leukemia-SR cell line were obtained from American Type Culture Collection. The cells were cultured using Dulbecco's modified Eagle's medium (DMEM) (Invitrogen/Life Technologies) supplemented with 10% fetal bovine serum (FBS) (Hyclone), 10 μg mL^−1 of insulin (Sigma), and 1% penicillin–streptomycin. […] For 24 hours before to the MTT experiment, plate cells (densities of 1.2–1.8 × 10 000 cells per well) were layered in a 96-well plate containing 100 μL of the tested chemical per well and 100 μL of full growth media.
as §3
(§5) For the best results, the cells in the log phase of growth should be employed and the final cell number should not exceed 10^6 cells per cm^2. Each test should include a blank containing a complete medium without cells. Cultures from the incubator were transferred into a laminar flow hood or other sterile work area. […] Reconstituted MTT was added in an amount equal to 10% of the culture medium volume. Cultures were returned to the incubator for 2–4 h depending on the cell type and maximum cell density. An incubation period of 2 h is generally adequate but may be lengthened for low cell densities or cells with lower metabolic activity. The incubation times should be consistent when making comparisons. […] Occasionally, especially in dense cultures, pipetting up and down may be required to completely dissolve the MTT formazan crystals. The absorbance was spectrophotometrically measured at a wavelength of 570 nm. The background absorbance of multiwell plates was measured at 690 nm and subtracted from the 450 nm measurement. Tests performed in multiwell plates might be read using an appropriate type of plate reader or the contents of individual wells might be transferred to appropriate size cuvettes for spectrophotometric measurement.

Hep3B cells [3] = assay: Cell cycle analysis by propidium iodide staining, flow cytometry; type: cell-based, human; conditions: Hep3B cells treated at IC50
Procedure: An apoptosis study was performed at the Cell Culture Unit, VACSERA, Cairo, Egypt. […] The treated cells were washed twice with ice-cold phosphate-buffered saline (PBS), centrifuged and then fixed in ice-cold 70% (v/v) ethanol to prevent clustering of cells during fixation. […] Then 3 mL of PBS was added, and the cells were centrifuged to remove the supernatant. The cells were analyzed by flow cytometry using a FACSort Calibur (Becton Dickinson Biosciences, CA, USA). Finally, the Cell Quest software was used to determine the cell cycle distribution.[65,66]

[4] = target: T1, human DNA topoisomerase II beta (Topo2β) (Homo sapiens, UniProt Q02880); assay: Topo2β polymerase inhibition assay (ELISA), MCF-7; type: cell-based; conditions: against MCF-7 cell line
Procedure: This assay was employed to predict the inhibitory effects of novel compounds on Topo2β. […] The melting points were determined using a Stuart apparatus, and the values given are uncorrected. IR spectra were recorded using a Shimadzu IR 4000s spectrophotometer (KBr, cm^−1) at the College of Pharmaceutical Sciences and Drug Manufacturing, Misr University for Science and Technology, Egypt. ^1H NMR spectra were recorded using a Bruker 400 MHz (Bruker Corp., Billerica, MA, USA) spectrophotometer, Faculty of Pharmacy, Cairo University, Cairo, Egypt and the Centre of Drug Discovery Research & Development, Faculty of Pharmacy, Ain shams University, and a Jeol 500 MHz spectrophotometer at the National Research Center. Chemical shifts were recorded in ppm on a δ scale, coupling constants (J) were given in Hz and peak multiplicities are designed as follows: s, singlet; d, doublet; t, triplet; m, multiplet. ^13C NMR spectra were recorded using a Bruker 100 MHz spectrophotometer, Faculty of Pharmacy, Cairo University and the Centre of Drug Discovery Research & Development, Faculty of Pharmacy, Ain shams University, and a Jeol 500 MHz spectrophotometer at the National Research Center. Chemical shifts were recorded in ppm on a δ scale. Microanalyses for C, H, and N were carried out at the Regional Center for Mycology and Biotechnology, Faculty of Pharmacy, Al-Azhar University. C, H, and N analysis values were accepted within the range of ± 0.4 of the calculated percentages. […] The used eluting system was methanol : hexane with a ratio of 9.5/0.5 respectively. Scientific microwave MAS-II was used under 300 W microwave irradiation, operating at 80 °C. The evaluation of the cytotoxic activity was performed at VACSERA, Giza, Egypt, using MCF-7, Hep3B and leukemia SR cell lines. […]
This assay employs a quantitative sandwich enzyme immunoassay technique. […] The color development was stopped, and the intensity of the color was measured. […] The mean OD value of 20 replicates of the zero standard was determined and added to their three standard deviations.[64]

active caspase-3 = assay: Caspase-3 enzyme assay (ELISA) in Hep3B; type: cell-based, human; conditions: Hep3B cells
Procedure: Caspases are crucial mediators of apoptosis. Among them, caspase-3 is considered as a key effector caspase in inducing cell apoptosis and serves as a marker of programmed cell death.[58] Compounds 3c and 5 were tested for their effect on caspase-3 levels in the most sensitive liver cancer cell line Hep3B.
Caspase-3 is one of the crucial mediators of programmed cell death (apoptosis) as it is essential for the formation of apoptotic bodies.[67–70] Active caspase-3 level was measured in pg ml^−1 protein using an Invitrogen ELISA kit (catalog KHO1091). The following procedures were performed. First, 100 μL of the standard diluent buffer was added to the zero standard wells. Then, 100 μL of standards and controls or diluted samples were added to the appropriate microtitre wells. Cover wells were covered and incubated for 2 h at room temperature. The solution was decanted from wells. Then 100 μL of active caspase-3 detection antibody solution was pipetted into each well. The plate was covered and incubated for 1 h at room temperature. After that, 100 μL of Anti-Rabbit IgG HP working solution was added to each well. The wells were covered with a plate cover and incubated for 30 min at room temperature. Then, 100 μL of stabilized chromogen was added to each well. The liquid in the wells will begin to turn blue, and the wells were incubated for 30 min at room temperature. A stop solution was added to each well. The solution in the wells should change from blue to yellow. The plate was read within 2 h after adding the stop solution. Curve fitting software was used to generate the standard curve.

Hep3B cells [5] = assay: Annexin V-FITC/propidium iodide apoptosis assay; conditions: for Total %: apoptosis and necrosis total; for Total % / Early apoptosis % / Late apoptosis % / Necrosis %: treated at IC50; for percentage of apoptotic cells (summation of Q2 and Q3): early plus late apoptosis
Procedure: An Annexin-V-FITC apoptosis assay was used to determine apoptosis and necrosis. The cells were incubated with Annexin-V-FITC, centrifuged and then resuspended in 500 μL of 1× binding buffer. Then 5 μL of Annexin-V-FITC and 5 μL of propidium iodide (PI) were added, and the cells were then trypsinized and washed once with serum-containing media before incubation with Annexin-V-FITC at room temperature for 5 min in the dark. A FACSort Calibur flow cytometer (Becton Dickinson Biosciences) was used to analyze apoptosis.[56,57]

[6] = target: T1, human DNA topoisomerase II beta (Topo2β); assay: Topo2β polymerase inhibition assay (ELISA), Hep3B; type: cell-based; design: concentration or dose not given beside the values; conditions: against Hep3B cell line
Procedure: (§1) This assay was employed to predict the inhibitory effects of novel compounds on Topo2β. […] The melting points were determined using a Stuart apparatus, and the values given are uncorrected. IR spectra were recorded using a Shimadzu IR 4000s spectrophotometer (KBr, cm^−1) at the College of Pharmaceutical Sciences and Drug Manufacturing, Misr University for Science and Technology, Egypt. ^1H NMR spectra were recorded using a Bruker 400 MHz (Bruker Corp., Billerica, MA, USA) spectrophotometer, Faculty of Pharmacy, Cairo University, Cairo, Egypt and the Centre of Drug Discovery Research & Development, Faculty of Pharmacy, Ain shams University, and a Jeol 500 MHz spectrophotometer at the National Research Center. Chemical shifts were recorded in ppm on a δ scale, coupling constants (J) were given in Hz and peak multiplicities are designed as follows: s, singlet; d, doublet; t, triplet; m, multiplet. ^13C NMR spectra were recorded using a Bruker 100 MHz spectrophotometer, Faculty of Pharmacy, Cairo University and the Centre of Drug Discovery Research & Development, Faculty of Pharmacy, Ain shams University, and a Jeol 500 MHz spectrophotometer at the National Research Center. Chemical shifts were recorded in ppm on a δ scale. Microanalyses for C, H, and N were carried out at the Regional Center for Mycology and Biotechnology, Faculty of Pharmacy, Al-Azhar University. C, H, and N analysis values were accepted within the range of ± 0.4 of the calculated percentages. […] The used eluting system was methanol : hexane with a ratio of 9.5/0.5 respectively. Scientific microwave MAS-II was used under 300 W microwave irradiation, operating at 80 °C. The evaluation of the cytotoxic activity was performed at VACSERA, Giza, Egypt, using MCF-7, Hep3B and leukemia SR cell lines. Enzyme assay, cell cycle analysis, apoptosis and caspase-3 assay were carried out at VACSERA, Giza, Egypt using an SEB870Hu 96 Tests Enzyme-linked Immunosorbent Assay Kit for Topoisomerase II Beta.
This assay employs a quantitative sandwich enzyme immunoassay technique. […] Antibody specific for Topo2β was pre-coated onto a microplate. Standards and samples were pipetted into the wells and any Topo2β present was bound by the immobilized antibody. After removing any unbound substances, a biotin-conjugated antibody specific for Topo2β was added to the wells. After washing, avidin-conjugated Horseradish Peroxidase (HP) was added to the wells. Following washing to remove any unbound avidin–enzyme reagent, a substrate solution was added to the wells and color develops in proportion to the amount of Topo2β bound in the initial step. The color development was stopped, and the intensity of the color was measured. […] The sensitivity of this assay or lower limit of detection (LLD) is defined as the lowest protein concentration that could be differentiated from zero. The mean OD value of 20 replicates of the zero standard was determined and added to their three standard deviations.[64]

in vitro [7] = conditions: human, THLE2 normal liver cells
Procedure: as §2, §3, §5

[8] = test system: human liver cancer (Hep3B) cell line; assay: MTT cytotoxicity assay, Hep3B; conditions: Homo sapiens, Hep3B
Procedure: as §4, §3, §5

[9] = target: T1, human DNA topoisomerase II beta (Topo2β); assay: Topo2β polymerase inhibition assay (ELISA), L-SR; type: cell-based; design: endogenous in cells; host or cells: MCF-7 (A4), Hep3B (A5), L-SR (A6) human cancer cell lines; conditions: against L-SR cell line
Procedure: as §1
This assay employs a quantitative sandwich enzyme immunoassay technique. […] Antibody specific for Topo2β was pre-coated onto a microplate. Standards and samples were pipetted into the wells and any Topo2β present was bound by the immobilized antibody. After removing any unbound substances, a biotin-conjugated antibody specific for Topo2β was added to the wells. After washing, avidin-conjugated Horseradish Peroxidase (HP) was added to the wells. […] The color development was stopped, and the intensity of the color was measured. […] The mean OD value of 20 replicates of the zero standard was determined and added to their three standard deviations.[64]

in vitro [10] = conditions: human, PCS-800-011 normal lymphocyte cells
Procedure: as §2, §3, §5

[11] = test system: leukemia (L-SR) cell line; assay: MTT cytotoxicity assay, L-SR; conditions: Homo sapiens, 48 h, read-out: Cytotoxicity IC50 L-SR
Procedure: as §4, §3, §5

[12] = test system: human breast cancer (MCF-7) cell line
Procedure: as §4, §3, §5

[13] = test system: leukemia (L-SR) cell line
Procedure: as §4, §3, §5

[14] = test system: human liver cancer (Hep3B) cell line
Procedure: as §4, §3, §5

[15] = 48 h, read-out: Cytotoxicity IC50 Hep3B

T1 sequence (Q02880 whole entry): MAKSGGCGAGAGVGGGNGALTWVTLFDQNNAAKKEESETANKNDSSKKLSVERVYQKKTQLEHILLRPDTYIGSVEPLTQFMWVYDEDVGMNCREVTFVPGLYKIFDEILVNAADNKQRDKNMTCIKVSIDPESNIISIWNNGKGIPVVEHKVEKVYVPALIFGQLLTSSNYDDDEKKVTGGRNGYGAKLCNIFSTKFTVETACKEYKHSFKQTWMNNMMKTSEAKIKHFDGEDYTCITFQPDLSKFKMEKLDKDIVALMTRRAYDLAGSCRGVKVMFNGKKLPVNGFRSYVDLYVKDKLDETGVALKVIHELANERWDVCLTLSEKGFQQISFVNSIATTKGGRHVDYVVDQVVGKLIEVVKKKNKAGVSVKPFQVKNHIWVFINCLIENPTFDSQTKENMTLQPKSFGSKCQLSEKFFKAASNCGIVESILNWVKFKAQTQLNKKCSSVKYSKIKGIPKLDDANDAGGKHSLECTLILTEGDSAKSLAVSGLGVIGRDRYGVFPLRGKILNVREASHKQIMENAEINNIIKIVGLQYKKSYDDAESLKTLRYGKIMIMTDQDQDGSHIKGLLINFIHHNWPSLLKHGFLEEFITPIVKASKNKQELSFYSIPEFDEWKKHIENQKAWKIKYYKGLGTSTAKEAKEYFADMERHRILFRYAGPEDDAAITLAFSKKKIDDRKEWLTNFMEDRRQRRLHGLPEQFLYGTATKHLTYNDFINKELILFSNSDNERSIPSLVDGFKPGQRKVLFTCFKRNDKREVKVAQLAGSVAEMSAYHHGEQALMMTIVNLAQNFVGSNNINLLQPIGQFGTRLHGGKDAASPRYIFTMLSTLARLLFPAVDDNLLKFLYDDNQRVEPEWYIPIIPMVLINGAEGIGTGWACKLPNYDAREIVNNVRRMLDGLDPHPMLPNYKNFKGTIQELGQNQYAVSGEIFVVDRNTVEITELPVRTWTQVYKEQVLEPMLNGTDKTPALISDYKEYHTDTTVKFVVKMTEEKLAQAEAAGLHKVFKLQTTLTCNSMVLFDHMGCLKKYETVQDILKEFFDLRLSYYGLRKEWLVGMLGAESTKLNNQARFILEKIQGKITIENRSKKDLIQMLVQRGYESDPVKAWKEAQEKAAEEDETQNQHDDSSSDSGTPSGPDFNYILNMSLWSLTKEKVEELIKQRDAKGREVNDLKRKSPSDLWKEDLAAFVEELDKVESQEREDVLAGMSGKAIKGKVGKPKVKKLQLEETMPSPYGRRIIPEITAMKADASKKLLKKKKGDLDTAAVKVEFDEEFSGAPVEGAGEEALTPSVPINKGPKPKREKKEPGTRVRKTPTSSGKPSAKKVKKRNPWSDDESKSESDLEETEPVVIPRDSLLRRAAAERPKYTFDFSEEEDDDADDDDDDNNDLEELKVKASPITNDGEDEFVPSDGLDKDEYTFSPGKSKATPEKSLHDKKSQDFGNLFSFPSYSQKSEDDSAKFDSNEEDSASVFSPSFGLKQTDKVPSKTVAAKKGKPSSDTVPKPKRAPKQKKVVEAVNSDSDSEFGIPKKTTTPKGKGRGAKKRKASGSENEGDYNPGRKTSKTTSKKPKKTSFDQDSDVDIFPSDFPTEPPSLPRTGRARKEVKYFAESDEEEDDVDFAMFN

Row | IC50 at 48 h (in vitro [1]) [µM] | Topo2β% inhibition [4] [%] | Topo2β% inhibition [6] [%] | IC50 at 48 h (in vitro [7]) [µM] | Topo2β% inhibition [9] [%] | IC50 at 48 h (in vitro [10]) [µM] | Compound | IC50 [2] [µM] | DNA content %G0–G1 (Hep3B cells [3]) [%] | DNA content %G2/M (Hep3B cells [3]) [%] | DNA content %S (Hep3B cells [3]) [%] | Caspase-3 Conc. (active caspase-3) [pg/mL] | Total % (Hep3B cells [5]) [%] | percentage of apoptotic cells (summation of Q2 and Q3) (Hep3B cells [5]) [%] | Early apoptosis % (Hep3B cells [5]) [%] | Late apoptosis % (Hep3B cells [5]) [%] | Necrosis % (Hep3B cells [5]) [%] | IC50 [8, 15] [µM] | IC50 [11] [µM] | IC50 [8] [µM] | further results
1 | 30.4 ± 1.66 | 78.30 | 83.73 | 40.6 ± 2.28 | 80.29 | 19.7 ± 1.03 | CCOC(=O)CC(C)=NNC(=O)c1cn2c3c(c(N4CCN(C)CC4)c(F)cc3c1=O)OCC2C (centres unmarked) [Compound 5, Ethyl 3-(2-(9-fluoro-3-methyl-10-(4-methylpiperazin-1-yl)-7-oxo-2,3-dihydro-7H-[1,4]oxazino[2,3,4-ij]quinoline-6-carbonyl)hydrazineylidene)butanoate] | 1.4 ± 0.06 | 38.49 | 22.42 | 39.09 | 375.8 ± 16.6 | 38.11 | 32.21 | 9.54 | 22.67 | 5.9 | 3.77 ± 0.17 | 0.96 ± 0.06 |  | 
2 |  |  | 71.92 | 68.5 ± 3.86 |  | 32.1 ± 1.68 | CC1COc2c(N3CCN(C)CC3)c(F)cc3c(=O)c(C(=O)N4NC(=O)CC4=N)cn1c23 (centres unmarked) [Compound 7, 9-Fluoro-6-((5-imino-3-oxopyrazolidine-1-yl)carbonyl)-3-methyl-10-(4-methylpiperazin-1-yl)-2,3-dihydro-7H-[1,4]oxazino[2,3,4-ij]quinolin-7-one] | 4.37 ± 0.2 |  |  |  |  |  |  |  |  |  | 6.99 ± 0.32 | 12.1 ± 0.73 |  | melting point: 101 to 103 °C
3 | 22.2 ± 1.41 | 59.80 | 73.59 | 29.9 ± 1.52 | 70.40 | 20.2 ± 0.85 | C[C@H]1COc2c(N3CCN(C)CC3)c(F)cc3c(=O)c(C(=O)O)cn1c23 [Levofloxacin, reference compound] | 2.79 ± 0.16 | 29.66 | 39.87 | 30.47 | 391.7 ± 5.86 | 34.62 | 23.60 | 0.95 | 22.65 | 11.02 | 8.94 ± 0.29 | 7.38 ± 0.31 | 8.94 | 
4 |  |  |  |  |  |  | 9-Fluoro-3-methyl-6-((3-methyl-5-oxo-4,5-dihydro-1H-pyrazol-1-yl)carbonyl)-10-(4-methylpiperazin-1-yl)-2,3-dihydro-7H-[1,4]oxazino[2,3,4-ij]quinolin-7-one [Compound 6] |  |  |  |  |  |  |  |  |  |  |  |  |  | IC50 [12]: 40.6 ± 1.88 µM; IC50 [13]: 28.9 ± 1.75 µM; IC50 [14]: 13.1 ± 0.61 µM
5 |  |  | 81.33 | 20 ± 0.76 |  |  | COc1ccc(C=NNC(=O)c2cn3c4c(c(N5CCN(C)CC5)c(F)cc4c2=O)OCC3C)cc1 (centres unmarked) [Compound 3c, 9-Fluoro-3-methyl-10-(4-methylpiperazin-1-yl)-N′-(4-methoxybenzylidene)-7-oxo-2,3-dihydro-7H-[1,4]oxazino[2,3,4-ij]quinoline-6-carbohydrazide] | 40.6 ± 3.17 | 43.53 | 18.91 | 37.56 | 407.3 ± 7.55 | 32.91 | 25.87 | 11.54 | 14.33 | 7.04 | 0.43 ± 0.01 | 22.4 ± 1.34 | 0.43 | 
6 | 23.9 ± 1.55 | 63.18 | 73.22 | 35.2 ± 2.19 | 69.85 | 37.1 ± 1.79 | COc1cc([C@@H]2c3cc4c(cc3[C@@H](O[C@@H]3O[C@@H]5CO[C@@H](C)O[C@H]5[C@H](O)[C@H]3O)[C@H]3COC(=O)[C@H]23)OCO4)cc(OC)c1O [Etoposide, reference compound] | 16.3 ± 0.72 | 36.14 | 37.62 | 26.24 | 460 ± 11.3 | 27.09 |  | 3.41 | 9.37 | 14.31 | 21.9 ± 0.72 | 3.38 ± 0.13 | 21.9 | 
